{
  "source": "ChEMBL document CHEMBL4811222",
  "about": "“Antitumor Activity of Asperphenin B by Induction of Apoptosis and Regulation of Glyceraldehyde-3-phosphate Dehydrogenase in Human Colorectal Cancer Cells” (J Nat Prod, 2021)",
  "key": {"[1]": {"tested_on": "RKO", "assay": "Induction of cell cycle arrest in human RKO cells assessed as accumulation at sub-G1 phase at 2.5 uM after 24 hrs by RNase A/propidium iodide staining based flow cytometric analysis (reference value: 0.40 %)", "format": "functional"}, "[2]": {"tested_on": "RKO", "assay": "Suppression of GAPDH protein expression in human RKO cells after 24 hrs by Western blotting analysis", "format": "functional, cell-based", "conditions": "dose 2.5-10 µM"}, "[3]": {"tested_on": "RKO", "assay": "Induction of cell cycle arrest in human RKO cells assessed as accumulation at G0/G1 phase at 2.5 uM after 24 hrs by RNase A/propidium iodide staining based flow cytometric analysis (reference value: 60.58 %)", "format": "functional"}, "[4]": {"tested_on": "HCT-116", "assay": "Antiproliferative activity against human HCT-116 cells assessed as inhibition of cell growth incubated for 72 hrs by SRB assay", "format": "functional, cell-based", "conditions": "HCT-116, 72 h"}, "[5]": {"tested_on": "HCT-116", "assay": "Downregulation of Snail expression in […] at 3 to 6 uM after 24 hrs by Western blotting analysis", "format": "functional, cell-based", "conditions": "dose 3-6 µM"}, "[6]": {"tested_on": "RKO", "assay": "Induction of cell cycle arrest in human RKO cells assessed as upregulation of cyclin B1 expression measured after 24 hrs by Western blot analysis", "format": "functional, cell-based", "conditions": "dose 1.25-5 µM"}, "[7]": {"tested_on": "RKO", "assay": "Induction of apoptosis in human RKO cells assessed as increase in cleaved caspase 9 expression at 2.5 uM measured upto 48 hrs by Western blotting analysis", "format": "functional, cell-based", "conditions": "time hrs <=48"}, "[8]": {"tested_on": "LS174T", "assay": "Antiproliferative activity against human LS174T cells assessed as inhibition of cell growth incubated for 72 hrs by SRB assay", "format": "functional, cell-based"}, "[9]": {"tested_on": "RKO", "assay": "Induction of cell cycle arrest in human RKO cells assessed as accumulation at sub-G1 phase at 2.5 uM after 48 hrs by RNase A/propidium iodide staining based flow cytometric analysis (reference value: 0.89 %)", "format": "functional"}, "[10]": {"target": "Glyceraldehyde-3-phosphate dehydrogenase (Homo sapiens) (UniProt P04406)", "sequence (P04406 2-335 limits assumed)": "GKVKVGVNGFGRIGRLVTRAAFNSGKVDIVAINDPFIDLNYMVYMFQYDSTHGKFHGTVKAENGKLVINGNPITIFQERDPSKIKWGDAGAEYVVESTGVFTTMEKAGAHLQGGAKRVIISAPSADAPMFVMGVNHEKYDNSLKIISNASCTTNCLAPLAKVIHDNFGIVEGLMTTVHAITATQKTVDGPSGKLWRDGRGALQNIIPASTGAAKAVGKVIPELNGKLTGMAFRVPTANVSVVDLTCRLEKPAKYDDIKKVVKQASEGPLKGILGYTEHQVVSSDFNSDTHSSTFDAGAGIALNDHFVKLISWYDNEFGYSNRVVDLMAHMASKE", "assay": "Inhibition of GAPDH activity (unknown origin) after 1 hr", "conditions": "dose 0.01-10 µM"}, "[11]": {"tested_on": "RKO", "assay": "Induction of apoptosis in human RKO cells assessed as total apoptotic cells at 2.5 uM after 48 hrs by Annexin V/PI staining based flow cytometric analysis", "format": "functional"}, "[12]": {"tested_on": "RKO", "assay": "Induction of cell cycle arrest in human RKO cells assessed as accumulation at sub-G1 phase at 2.5 uM after 24 hrs by RNase A/propidium iodide staining based flow cytometric analysis (reference value: 0.89 %)", "format": "functional"}, "[13]": {"tested_on": "RKO", "assay": "Induction of apoptosis in human RKO cells assessed as increase in cleaved caspase 3 expression at 2.5 uM measured upto 48 hrs by Western blotting analysis", "format": "functional, cell-based", "conditions": "time hrs <=48"}, "[14]": {"tested_on": "RKO", "assay": "Induction of cell cycle arrest in human RKO cells assessed as accumulation at G0/G1 phase at 2.5 uM after 12 hrs by RNase A/propidium iodide staining based flow cytometric analysis (reference value: 60.58 %)", "format": "functional"}, "[15]": {"tested_on": "RKO", "assay": "Induction of cell cycle arrest in human RKO cells assessed as accumulation at sub-G1 phase at 2.5 uM after 12 hrs by RNase A/propidium iodide staining based flow cytometric analysis (reference value: 0.89 %)", "format": "functional"}, "[16]": {"tested_on": "RKO", "assay": "Induction of cell cycle arrest in human RKO cells assessed as accumulation at G2/M phase at 2.5 uM after 24 hrs by RNase A/propidium iodide staining based flow cytometric analysis (reference value: 24.63 %)", "format": "functional"}, "[17]": {"tested_on": "RKO", "assay": "Induction of cell cycle arrest in human RKO cells assessed as accumulation at G2/M phase at 2.5 uM after 36 hrs by RNase A/propidium iodide staining based flow cytometric analysis (reference value: 24.63 %)", "format": "functional"}, "[18]": {"tested_on": "HCT-116", "assay": "Downregulation of N-Cadherin expression in […] at 3 to 6 uM after 24 hrs by Western blotting analysis", "format": "functional, cell-based", "conditions": "dose 3-6 µM"}, "[19]": {"tested_on": "RKO", "assay": "Induction of apoptosis in human RKO cells assessed as total apoptotic cells at 5 uM after 48 hrs by Annexin V/PI staining based flow cytometric analysis", "format": "functional"}, "[20]": {"tested_on": "RKO", "assay": "Induction of apoptosis in human RKO cells assessed as total apoptotic cells at 1.25 uM after 48 hrs by Annexin V/PI staining based flow cytometric analysis", "format": "functional"}, "[21]": {"tested_on": "RKO", "assay": "Induction of cell cycle arrest in human RKO cells assessed as accumulation at G2/M phase at 2.5 uM after 48 hrs by RNase A/propidium iodide staining based flow cytometric analysis (reference value: 24.63 %)", "format": "functional"}, "[22]": {"tested_on": "RKO", "assay": "Induction of cell cycle arrest in human RKO cells assessed as inactivation of Cdc25C protein at 1.25 to 5 uM measured after 24 hrs by Western blot analysis", "format": "functional, cell-based", "conditions": "dose 1.25-5 µM"}, "[23]": {"tested_on": "HCT-116", "assay": "Upregulation of E-cadherin expression in […] at 3 to 6 uM after 24 hrs by Western blotting analysis", "format": "functional, cell-based", "conditions": "dose 3-6 µM"}, "[24]": {"tested_on": "RKO", "assay": "Induction of cell cycle arrest in human RKO cells assessed as accumulation at G0/G1 phase at 2.5 uM after 48 hrs by RNase A/propidium iodide staining based flow cytometric analysis (reference value: 60.58 %)", "format": "functional"}, "[25]": {"tested_on": "RKO", "assay": "Induction of cell cycle arrest in human RKO cells assessed as accumulation at S phase at 2.5 uM after 24 hrs by RNase A/propidium iodide staining based flow cytometric analysis (reference value: 24.20 %)", "format": "functional"}, "[26]": {"tested_on": "RKO", "assay": "Induction of apoptosis in human RKO cells assessed as modulation of cleaved PARP expression level after 48 hrs by Western blotting analysis", "format": "functional, cell-based", "conditions": "dose 2.5-10 µM"}, "[27]": {"tested_on": "RKO", "assay": "Induction of cell cycle arrest in human RKO cells assessed as accumulation at S phase at 2.5 uM after 24 hrs by RNase A/propidium iodide staining based flow cytometric analysis (reference value: 13.33 %)", "format": "functional"}, "[28]": {"tested_on": "RKO", "assay": "Antitumor activity against human RKO cells implanted in BALB/c nude mouse assessed as inhibition of tumor growth at 8 mg/kg, ip administered three times per week for 21 days and measured every 3 to 4 days by electronic caliper method", "format": "functional", "conditions": "504 h, time 21 day, read-out: TGI"}, "[29]": {"tested_on": "HCT-116", "assay": "Suppression of GAPDH expression in […] at 3 to 6 uM after 24 hrs by Western blotting analysis", "format": "functional, cell-based", "conditions": "dose 3-6 µM"}, "[30]": {"tested_on": "HCT-116", "assay": "Antimigratory activity against human HCT116 cells implanted in nude mouse assessed as inhibition of liver cells migration after 24 hrs by wound healing assay", "format": "functional, cell-based", "conditions": "dose 3-6 µM"}, "[31]": {"tested_on": "SW480", "assay": "Antiproliferative activity against human SW480 cells assessed as inhibition of cell growth incubated for 72 hrs by SRB assay", "format": "functional, cell-based", "conditions": "SW480, 72 h"}, "[32]": {"tested_on": "RKO", "assay": "Induction of cell cycle arrest in human RKO cells assessed as accumulation at sub-G1 phase at 2.5 uM after 36 hrs by RNase A/propidium iodide staining based flow cytometric analysis (reference value: 0.89 %)", "format": "functional"}, "[33]": {"tested_on": "RKO", "assay": "Antitumor activity against human RKO cells implanted in BALB/c nude mouse assessed as inhibition of tumor growth at 4 mg/kg, ip administered three times per week for 21 days and measured every 3 to 4 days by electronic caliper method", "format": "functional", "conditions": "504 h, time 21 day, read-out: TGI"}},
  "note": "Active and inactive are the calls of the source. No cut-off for these calls is given here.",
  "data": [
    {"smiles": "CCCCCCCCC[C@@H](O)CC(=O)N[C@@H](CC(N)=O)C(=O)N[C@@H](CCC(N)=O)C(=O)N[C@H](CC(=O)c1cc(C)cc(O)c1C(=O)c1c(O)cccc1O)CC(C)C", "values": [
      {"measurement": "Activity", "setting": "[1]", "result": 0.56, "unit": "%"},
      {"measurement": "Activity", "setting": "[2]", "result": "Dose-Dependent Effect"},
      {"measurement": "Activity", "setting": "[3]", "result": 33.93, "unit": "%"},
      {"measurement": "IC50", "setting": "[4]", "result": 3.12, "unit": "µM"},
      {"measurement": "Activity", "setting": "[5]", "result": "Active"},
      {"measurement": "Activity", "setting": "[6]", "result": "Dose-Dependent Effect"},
      {"measurement": "Activity", "setting": "[7]", "result": "Active"},
      {"measurement": "IC50", "setting": "[8]", "result": 6.36, "unit": "µM"},
      {"measurement": "Activity", "setting": "[9]", "result": 17.94, "unit": "%"},
      {"measurement": "inhibition", "setting": "[10]", "result": "Dose-Dependent Effect"},
      {"measurement": "Activity", "setting": "[11]", "result": 15.14, "unit": "%"},
      {"measurement": "Activity", "setting": "[12]", "result": 1.22, "unit": "%"},
      {"measurement": "Activity", "setting": "[13]", "result": "Active"},
      {"measurement": "Activity", "setting": "[14]", "result": 54.66, "unit": "%"},
      {"measurement": "Activity", "setting": "[15]", "result": 0.88, "unit": "%"},
      {"measurement": "Activity", "setting": "[16]", "result": 48.54, "unit": "%"},
      {"measurement": "Activity", "setting": "[17]", "result": 63.62, "unit": "%"},
      {"measurement": "Activity", "setting": "[18]", "result": "Active"},
      {"measurement": "Activity", "setting": "[19]", "result": 36.58, "unit": "%"},
      {"measurement": "Activity", "setting": "[20]", "result": 7.85, "unit": "%"},
      {"measurement": "Activity", "setting": "[21]", "result": 41.66, "unit": "%"},
      {"measurement": "Activity", "setting": "[22]", "result": "Active"},
      {"measurement": "Activity", "setting": "[23]", "result": "Active"},
      {"measurement": "Activity", "setting": "[24]", "result": 30.27, "unit": "%"},
      {"measurement": "Activity", "setting": "[25]", "result": 23.35, "unit": "%"},
      {"measurement": "Activity", "setting": "[26]", "result": "Dose-Dependent Effect"},
      {"measurement": "Activity", "setting": "[27]", "result": 16.64, "unit": "%"},
      {"measurement": "inhibition in vivo at 8 mg/kg", "setting": "[28]", "result": 57.1, "unit": "%"},
      {"measurement": "Activity", "setting": "[29]", "result": "Active"},
      {"measurement": "inhibition", "setting": "[30]", "result": "Dose-Dependent Effect"},
      {"measurement": "IC50", "setting": "[31]", "result": 2.37, "unit": "µM"},
      {"measurement": "Activity", "setting": "[32]", "result": 3.74, "unit": "%"},
      {"measurement": "inhibition in vivo at 4 mg/kg", "setting": "[33]", "result": 32.8, "unit": "%"}
    ]}
  ]
}
